Measured values from patent US12171230B2, “Herbicidal compositions” (Bayer Aktiengesellschaft, priority 2018, dated 2024).

How the values were obtained:
Assay type in all cases: in vivo
[1] = test system: Digitaria horizontalis; experiment: Post-emergence herbicidal action against Digitaria horizontalis; conditions: (Z61) post-emergence; g of a.i./ha: 200, 100, 100 + 200
Text: (§1) The following abbreviations are used in the description and the tables that follow: • g of a.i./ha=grams of active substance (active ingredient) (=100% active compound) per hectare; • The sum total of the effects of the individual applications is reported under E^A; • expected values according to Colby are each reported under E^C.
(§2) The rating period is reported in days after application (DAT).

[2] = test system: Chenopodium album; experiment: Post-emergence herbicidal action against Chenopodium album; conditions: g of a.i./ha: 180, 100, 100 + 180
Protocol: (§3) When the observed efficacies exceed the formal sum total of the values of the tests with individual applications, they also exceed the expected value according to Colby, which is calculated using the formula below and is likewise regarded as an indication of synergism (cf. S. R. Colby; in Weeds 15 (1967) p. 20 to 22): E^C=A+B−([…])
(§4) Here: • A=efficacy of the active compound (A) in % at an application rate of a g a.i./ha; • B=efficacy of the active compound (B) in % at an application rate of b g a.i./ha; • E^C=expected value of the effect of the combination (A)+(B) in % at the combined application rate a+b g a.i./ha.
(§5) Seeds or rhizome pieces of mono- and dicotyledonous weeds are placed in sandy loam in pots, covered with soil and grown in a greenhouse under good growth conditions (temperature, air humidity, water supply). Three weeks after sowing, the test plants were treated at the three-leaf stage with the compositions according to the invention. The compositions according to the invention formulated as spray powders or as emulsion concentrates were sprayed onto the green plant parts in various dosages with an application rate of 300 to 800 l/ha of water (equivalent). After the test plants have been left to stand in the greenhouse under optimal growth conditions for about 3 to 4 weeks, the action of the preparations is scored visually in comparison to untreated controls. The compositions according to the invention also have good post-emergence herbicidal activity against a broad spectrum of economically important gramineous and broadleaf weeds.

[3] = test system: Panicum maximum; experiment: Post-emergence herbicidal action against Panicum maximum; conditions: g of a.i./ha: 200, 100, 100 + 200
Protocol: as §3, §4, §5

[4] = test system: Poa annua; experiment: Post-emergence herbicidal action against Poa annua
Procedure, shortened: (§6)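 Pot-grown plants, three weeks old at the three-leaf stage, received foliar sprays of various dosages. Visual assessment relative to untreated plants followed 3 to 4 weeks later.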

[5] = test system: Lolium rigidum; experiment: Post-emergence herbicidal action against Lolium rigidum
Procedure, shortened: (§7)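 Each treatment was applied at a rate expressed as g of 100% active compound per ha, and the effect was scored a given number of days later (DAT). Reference values for combinations were calculated two ways: E^A, the sum of individual effects, and E^C, Colby's expected value.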

[6] = test system: Kochia scoparia; experiment: Post-emergence herbicidal action against Kochia scoparia; conditions: g of a.i./ha by row: 30, 5, 5 + 30
Text: as §1, §2

[7] = test system: Abutilon theophrasti; experiment: Post-emergence herbicidal action against Abutilon theophrasti; conditions: g of a.i./ha: 90, 30, 15, 15 + 90, 15 + 30
Procedure, shortened: as §7

[8] = test system: Sorghum halepense; experiment: Post-emergence herbicidal action against Sorghum halepense
Procedure, shortened: as §6

[9] = test system: Amaranthus palmeri; experiment: Post-emergence herbicidal action against Amaranthus palmeri; conditions: 21 DAT; 30 g of a.i./ha
Procedure, shortened: as §6

[10] = test system: Digitaria sanguinalis; experiment: Post-emergence herbicidal action against Digitaria sanguinalis; conditions: (Z61) post-emergence; g of a.i./ha: 180, 100, 100 + 180
Procedure, shortened: as §6

[11] = test system: Lolium rigidum (resistant biotype); experiment: Post-emergence herbicidal action against Lolium rigidum (resistant biotype)
Procedure, shortened: as §7

[12] = test system: Veronica hederifolia; experiment: Post-emergence herbicidal action against Veronica hederifolia; conditions: g of a.i./ha: 16, 270, 16 + 270
Text: as §1, §2

[13] = test system: Lamium purpureum; experiment: Post-emergence herbicidal action against Lamium purpureum
Procedure, shortened: as §6

[14] = test system: Echinochloa crus-galli; experiment: Post-emergence herbicidal action against Echinochloa crus-galli; conditions: 21 DAT; 30 g of a.i./ha
Procedure, shortened: as §6

[15] = test system: Alopecurus myosuroides; experiment: Post-emergence herbicidal action against Alopecurus myosuroides
Procedure, shortened: as §7

[16] = test system: Brachiaria decumbens; experiment: Post-emergence herbicidal action against Brachiaria decumbens; conditions: g of a.i./ha: 200, 100, 100 + 200
Text: as §1, §2

[17] = test system: Bidens pilosa; experiment: Post-emergence herbicidal action against Bidens pilosa; conditions: for Herbicidal action against Bidens pilosa: 21 DAT
Procedure, shortened: as §6

[18] = test system: Galium aparine; experiment: Post-emergence herbicidal action against Galium aparine
Procedure, shortened: as §6

[19] = (Z61) post-emergence, g of a.i./ha: 4, 1, 270, 90, 4 + 270, 4 + 90, 1 + 270, 1 + 90, 90 g of a.i./ha
[20] = (Z61) post-emergence, g of a.i./ha: 4, 1, 270, 90, 4 + 270, 4 + 90, 1 + 270, 1 + 90, 270 g of a.i./ha

Compound: O=C(Nc1ccc(F)cc1F)c1cccnc1Oc1cccc(C(F)(F)F)c1 [(B2.18) Diflufenican]
- Herbicidal action 28 DAT against Digitaria horizontalis [1]: 0%
- Herbicidal action 27 DAT against Chenopodium album [2]: 20%
- Herbicidal action 28 DAT against Panicum maximum [3]: 0%
- Herbicidal action 28 DAT against Poa annua L. ([4]; 30 g of a.i./ha): 0%
- Herbicidal action 28 DAT against Poa annua L. ([4]; 90 g of a.i./ha): 0%
- Herbicidal action 28 DAT against Poa annua L. ([4]; 270 g of a.i./ha): 0%
- Herbicidal action 14 DAT against Poa annua L. ([4]; (Z61) post-emergence, g of a.i./ha: 16, 1, 270, 90, 16 + 270, 16 + 90, 1 + 270, 1 + 90): 20%
- Herbicidal action 28 DAT against Poa annua L. ([4]; (Z119) post-emergence, g of a.i./ha: 16, 1, 270, 90, 30, 16 + 270, 16 + 90, 16 + 30, 1 + 270): 0%
- Herbicidal action 28 DAT against Lolium rigidum ([5]; 90 g of a.i./ha): 0%
- Herbicidal action 28 DAT against Lolium rigidum ([5]; 270 g of a.i./ha): 0%
- Herbicidal action 14 DAT against Lolium rigidum ([5]; (Z61) post-emergence, g of a.i./ha: 1, 270, 90, 30, 1 + 270, 1 + 90, 1 + 30, 30 g of a.i./ha): 0%
- Herbicidal action 14 DAT against Lolium rigidum ([5]; (Z61) post-emergence, g of a.i./ha: 1, 270, 90, 30, 1 + 270, 1 + 90, 1 + 30, 270 g of a.i./ha): 10%
- Herbicidal action 28 DAT against Lolium rigidum [5, 19]: 15%
- Herbicidal action 28 DAT against Lolium rigidum [5, 20]: 20%
- Herbicidal action 14 DAT against Lolium rigidum ([5]; (Z119) post-emergence, g of a.i./ha by row: 16, 1, 90, 270, 16 + 90, 1 + 270): 5%
- Herbicidal action 28 DAT against Lolium rigidum ([5]; (Z119) post-emergence, g of a.i./ha: 16, 4, 1, 270, 90, 30, 16 + 270, 16 + 90, 16 + 30, 4 + 270, 4 + 90, 4 + 30, 1 + 270): 0%
- Herbicidal action 21 DAT against Kochia scoparia [6]: 25%
- Herbicidal action 21 DAT against Abutilon theophrasti [7]: 10%
- Herbicidal action against Sorghum halepense ([8]; 21 DAT, 30 g of a.i./ha): 10%
- Herbicidal action 21 DAT against Sorghum halepense ([8]; (Z3) post-emergence, g of a.i./ha: 90, 30, 15, 5, 15 + 90, 5 + 90, 15 + 30, 5 + 30): 10%
- Herbicidal action against Amaranthus palmeri (res.) [9]: 40%
- Herbicidal action 37 DAT against Digitaria sanguinalis [10]: 0%
- Herbicidal action 28 DAT against Lolium rigidum (resistant biotype) ([11]; 30 g of a.i./ha): 0%
- Herbicidal action 28 DAT against Lolium rigidum (resistant biotype) ([11]; 90 g of a.i./ha): 0%
- Herbicidal action 28 DAT against Lolium rigidum (resistant biotype) ([11]; 270 g of a.i./ha): 0%
- Herbicidal action 14 DAT against Lolium rigidum (resistant biotype) ([11]; (Z61) post-emergence, g of a.i./ha by row: 4, 1, 270, 90, 4 + 270, 1 + 270, 1 + 90, 90 g of a.i./ha): 0%
- Herbicidal action 14 DAT against Lolium rigidum (resistant biotype) ([11]; (Z61) post-emergence, g of a.i./ha by row: 4, 1, 270, 90, 4 + 270, 1 + 270, 1 + 90, 270 g of a.i./ha): 10%
- Herbicidal action 28 DAT against Lolium rigidum (resistant biotype) ([11]; (Z61) post-emergence, g of a.i./ha: 4, 1, 270, 90, 4 + 270, 1 + 90, 90 g of a.i./ha): 10%
- Herbicidal action 28 DAT against Lolium rigidum (resistant biotype) ([11]; (Z61) post-emergence, g of a.i./ha: 4, 1, 270, 90, 4 + 270, 1 + 90, 270 g of a.i./ha): 20%
- Herbicidal action 14 DAT against Lolium rigidum (resistant biotype) ([11]; (Z119) post-emergence, g of a.i./ha by row: 16, 1, 90, 30, 270, 16 + 90, 16 + 30, 1 + 270, 30 g of a.i./ha): 0%
- Herbicidal action 14 DAT against Lolium rigidum (resistant biotype) ([11]; (Z119) post-emergence, g of a.i./ha by row: 16, 1, 90, 30, 270, 16 + 90, 16 + 30, 1 + 270, 90 g of a.i./ha): 5%
- Herbicidal action 28 DAT against Lolium rigidum (resistant biotype) ([11]; (Z119) post-emergence, g of a.i./ha: 1, 270, 1 + 270): 0%
- Herbicidal action 14 DAT against Veronica hederifolia [12]: 85%
- Herbicidal action 14 DAT against Lamium purpureum L. ([13]; 30 g of a.i./ha): 20%
- Herbicidal action 28 DAT against Lamium purpureum L. ([13]; 30 g of a.i./ha): 10%
- Herbicidal action 28 DAT against Lamium purpureum L. ([13]; 90 g of a.i./ha): 20%
- Herbicidal action 28 DAT against Lamium purpureum L. ([13]; (Z61) post-emergence, g of a.i./ha by row: 4, 1, 270, 30, 90, 4 + 270, 4 + 30, 1 + 270, 1 + 90, 1 + 30): 20%
- Herbicidal action 14 DAT against Lamium purpureum L. ([13]; (Z119) post-emergence, g of a.i./ha by row: 16, 30, 16 + 30): 20%
- Herbicidal action against Echinochloa crus-galli [14]: 10%
- Herbicidal action 28 DAT against Alopecurus myosuroides ([15]; (Z61) post-emergence, g of a.i./ha by row: 16, 4, 1, 270, 90, 16 + 270, 4 + 270, 4 + 90, 1 + 270, 1 + 90, 90 g of a.i./ha): 15%
- Herbicidal action 28 DAT against Alopecurus myosuroides ([15]; (Z61) post-emergence, g of a.i./ha by row: 16, 4, 1, 270, 90, 16 + 270, 4 + 270, 4 + 90, 1 + 270, 1 + 90, 270 g of a.i./ha): 20%
- Herbicidal action 14 DAT against Alopecurus myosuroides [15, 19]: 15%
- Herbicidal action 14 DAT against Alopecurus myosuroides [15, 20]: 20%
- Herbicidal action 28 DAT against Alopecurus myosuroides ([15]; (Z119) post-emergence, g of a.i./ha by row: 16, 1, 270, 90, 30, 16 + 270, 16 + 90, 16 + 30, 1 + 270, 1 + 90): 0%
- Herbicidal action 14 DAT against Alopecurus myosuroides ([15]; (Z119) post-emergence, g of a.i./ha: 16, 1, 270, 16 + 270, 1 + 270): 10%
- Herbicidal action 28 DAT against Brachiaria decumbens [16]: 0%
- Herbicidal action against Bidens pilosa ([17]; 90 g of a.i./ha): 35%
- Herbicidal action against Bidens pilosa ([17]; 270 g of a.i./ha): 45%
- Herbicidal action 21 DAT against Bidens pilosa ([17]; post-emergence, g of a.i./ha: 90, 30, 15, 15 + 90, 15 + 30): 10%
- Herbicidal action 28 DAT against Galium aparine ([18]; 30 g of a.i./ha): 0%
- Herbicidal action 28 DAT against Galium aparine ([18]; 90 g of a.i./ha): 20%
- Herbicidal action 14 DAT against Galium aparine ([18]; (Z119) post-emergence, g of a.i./ha by row: 1, 30, 1 + 30): 30%
- Herbicidal action 28 DAT against Galium aparine ([18]; (Z119) post-emergence, g of a.i./ha: 16, 4, 30, 16 + 30, 4 + 30): 0%
